Laboratory results published in PubChem BioAssay (NCI).
Values joined by “and” are separate entries in the source; they are usually repeats but may differ in a detail not shown here. Equal entries are not always repeated.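 Five concentrations, 48 hours, 96-well plates. GI50 marks 50% less growth. TGI marks complete inhibition of growth.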

What was measured:
Experiment in all cases: NCI tumour cell line growth inhibition, 48 h
[1] = tested on: DMS 114 small cell lung
[2] = tested on: LXFL 529 NSCLC
[3] = tested on: M19-MEL melanoma
[4] = tested on: RXF-631 renal
[5] = tested on: SNB-78 CNS
[6] = tested on: HOP-18 NSCLC
[7] = tested on: SN12K1 renal
[8] = tested on: P388/ADR leukemia
[9] = tested on: P388 leukemia

SMILES | TGI [1] | TGI [2] [µM] | TGI [3] | TGI [4] [µM] | TGI [5] [µM] | TGI [6] [µM] | GI50 [1] | TGI [7] [µM] | TGI [8] [µM] | TGI [9] [µM]
Cc1cn([C@@H]2C[C@H](CO)[C@@H](O)C2)c(=O)[nH]c1=O | > 100 µM | > 100 | > 100 µM | > 100 | > 100 | > 100 |  |  |  | 
Cn1ccnc1C(O)(c1nccn1C)c1nccn1C | > 100 µM | > 100 | > 100 µM |  | > 100 | > 100 |  |  |  | 
CSC(=Nc1ccccc1)N(c1ccccc1)c1nc(=[N+](C)C)ss1 | 0.46 µM |  | 4.98 µM |  | 21.4 |  |  |  |  | 
CC(=O)OCC1OC(n2cc(I)c(=O)[nH]c2=O)C(OC(C)=O)C(OC(C)=O)C1OC(C)=O (stereo not given) | > 100 µM | > 100 | > 100 µM |  |  | > 100 |  |  |  | 
O=C1Sc2ccccc2C(=O)N2CSCC12 (stereo not given) | > 100 µM | > 100 | > 100 µM |  | > 100 | > 100 |  |  |  | 
N#CC1=C(c2ccccc2)NNC(c2ccc(Cl)cc2)CC1=O (stereo not given) | > 100 µM | > 100 |  |  | > 100 | > 100 |  |  |  | 
Nc1nc(N)c(N=O)c(Nc2ccc(Br)cc2)n1 | 52.1 µM | > 100 | > 100 µM |  | > 100 | > 100 |  |  |  | 
CC12CCC3C(CCC4CC(OC(=O)Cc5ccc(N(CCCl)CCCl)cc5)CCC43C)C1CCC(=O)N2 (stereo not given) | 25.6 µM | 30 | 33.5 µM |  | 40.7 | 31.2 |  |  |  | 
COc1c(O)c2c3c(c(C)cc(O)c3c1O)C(=O)C(O)(C(C)(C)C(C)=O)C2=O (stereo not given) | 28.2 µM and > 100 µM | > 100 | 28.1 µM and 35.3 µM |  | > 100 | > 100 | 13.3 µM and 55.3 µM |  |  | 
O=C(CN(c1ccccc1)c1ccccc1)N1c2ccccc2C2C=CC=CC21 (stereo not given) | 23.1 µM | 34.6 | > 57.4 µM |  | > 58.7 | 74.9 |  |  |  | 
CCN1CCCC(NCc2c3ccccc3c(CNC3CCCN(CC)C3)c3ccccc23)C1 (stereo not given) | 16.1 µM |  | 17.6 µM |  | > 73.1 | > 46.6 |  | 23.1 | 33.8 | 9.25
CCN(CC)CCCNC(=O)c1ccc([N+](=O)[O-])cc1O | > 100 µM | > 100 |  | > 100 | > 100 |  |  |  |  | 
CC(C(=O)N1C(=O)N(C(=O)C(C)C(O)c2ccccc2)C2CCCCC21)C(O)c1ccccc1 (stereo not given) |  | > 100 | > 100 µM |  | > 100 |  |  |  |  | 
CCC1=CC2CN3Cn4c(c(COCc5c6n(c7ccccc57)CN5CC7C=C(CC)C5C6(C(=O)OC)C7)c5ccccc54)C(C(=O)OC)(C2)C13 | > 100 µM | > 100 | > 100 µM |  |  |  |  |  |  | 
